Assay results published in patent publication US12297165B2, “Oligothioetheramides (oligoteas) as anti-microbial and anti-bacterial agents” (Cornell University, priority 2017, dated 2025).
Each block holds one molecule with its values, some of them ahead of it.

Assays:
Assay type in all cases: cell-based
[1] = system: Pseudomonas aeruginosa (PA-14, PA-1); experiment: MIC assay, Pseudomonas aeruginosa strains; conditions: Pseudomonas aeruginosa PA-14 and PA-1
Description: PA-14 is a highly virulent Pseudomonas aeruginosa strain (Gram-negative) that is difficult to treat. PA-1 is a meropenem resistant clinical isolate of Pseudomonas aeruginosa that was obtained from a patient. Meropenem, vancomycin and polymyxin B are commercial antibiotics that are used as controls.

Bacillus subtilis = experiment: Minimum inhibitory concentration (MIC) assay, B. subtilis
Method: (§1) Biological Assays: Minimum inhibitory concentration (MIC) assay: A single bacterial colony (Bacillus subtilis (B. subtilis) or methicillin-resistant Staphylococcus aureus (MRSA)) was selected and incubated in media (Luria Broth (LB) for B. subtilis or Tryptic Soy Broth (TSB) for MRSA) at 37° C. overnight. This was sub-cultured in media and incubated at 37° C. until the OD600 was approximately 0.5 (2.5-3.5-hour incubation). The subculture was diluted with media to an OD600 of 0.001. Diluted subculture and 1 mM stocks of compounds to be tested were added to a clear 96-well plate, and serially diluted by a factor of 0.5. The well plate was incubated overnight and the absorbance was measured at 600 nm using the TECAN. To determine the MIC in presence of serum, assays were repeated using media with 20% heat-inactivated mouse serum or 20% fetal bovine serum. […] The MIC50 was calculated using a 4PL sigmoidal nonlinear regression on Prism. The MIC100 was calculated as the first point below 10% of the maximum.
The MIC of PEG24-LL-PDT4G against B. subtilis was compared with the MIC of unmodified PDT-4G. Both compounds were pre-incubated with B. subtilis supernatant for 0, 4, or 24 hours before the MIC assay to test cleavage kinetics (FIG. 53).

E. coli = experiment: Minimum inhibitory concentration (MIC) assay, E. coli
[2] = system: methicillin resistant Staphylococcus aureus (MRSA) (ATCC 33591); experiment: Minimum inhibitory concentration (MIC) assay, MRSA
Method: as §1

[3] = system: community associated Staphylococcus aureus (strain USA300); experiment: Minimum inhibitory concentration (MIC) assay, S. aureus USA300
Method: as §1

[4] = system: cell membrane of methicillin resistant Staphylococcus aureus (MRSA); experiment: Membrane permeabilization propidium iodide (PI) assay, MRSA
bacterial membrane = experiment: Cytoplasmic permeability assay with propidium iodide, fluorescence microscopy; conditions: incubated with PI
Method: Membrane permeabilization propidium iodide (PI) assay: 1 mM BDT-4G stock solutions were prepared in DMSO. B. subtilis strains were streaked onto a Luria Broth (LB) agar plate and incubated overnight. One colony was selected and incubated in LB overnight, then subcultured and incubated until the OD600 measured between 0.5 and 0.6. Bacteria were harvested, washed, and resuspended in a solution of 5 mM HEPES, 5 mM glucose, and 10 μM propidium iodide. 150 μL bacteria solution was added to each well of a black 96 well plate. Fluorescence measurements were taken at 535 nm excitation, 617 nm emission on a TECAN Infinite M1000 PRO Microplate reader (Männdorf) (TECAN) for 2 minutes. BDT-4G stock solution was added for a concentration of 15 μg/mL, and fluorescence measurements were taken for an additional 20 minutes.
Membrane permeabilization dictates lytic potential. A cytoplasmic permeability assay was performed using propidium iodide (PI). PI is a cell impermeant intercalating agent that fluoresces when bound to nucleic acids. As such, PI can be used to identify cells with compromised membranes by measuring an increase in fluorescence above the baseline. This phenomenon was qualitatively confirmed by performing fluorescence microscopy studies incubated with PI with or without the AOTs. […]

[5] = presence of elevated calcium and magnesium ions (25 mM)
[6] = normal (Tryptic Soy media) media
[7] = presence of elevated calcium and magnesium ions (25 mM) and presence of heat-inactivated fetal bovine serum

SMILES: C=CCN(CCNC(=N)N)C(=O)CCSCCCSCCCN(CCNC(=N)N)C(=O)CCSCc1cccc(CSCCCN(CCNC(=N)N)C(=O)CCSCCCSCCCN)c1 [3GMG3G]
activity relative to the para substituted compound (3GPG3G) [1]: 2-4 fold

antibacterial activity (MIC100) against Bacillus subtilis (Bacillus subtilis; [5]): maintain their antibacterial activity
antibacterial activity (MIC100) against E. coli (E. coli; [5]): maintain their antibacterial activity
antibacterial activity (MIC100) against MRSA [2, 7]: maintain their antibacterial activity
antibacterial activity (MIC100) against Staphylococcus aureus strain USA300 [3, 7]: maintain their antibacterial activity
SMILES: C=CCN(CCNC(=N)N)C(=O)CCSCCCCSCCCN(CCNC(=N)N)C(=O)CCSCCCCSCCCN(CCNC(=N)N)C(=O)CCSCCCCSCCCN(CCNC(=N)N)C(=O)CCSCCCCSCCCN(CCNC(=N)N)C(=O)CCSCCCCSCCCN [BDT-5G]
antibacterial activity (MIC100) against Bacillus subtilis (Bacillus subtilis; normal (LB media) media): show activity
antibacterial activity (MIC100) against E. coli (E. coli; normal (LB media) media): show activity
antibacterial activity (MIC100) against MRSA [2, 6]: show activity
antibacterial activity (MIC100) against Staphylococcus aureus strain USA300 [3, 6]: show activity

SMILES: CN[C@H](CC(C)C)C(=O)N[C@H]1C(=O)N[C@@H](CC(N)=O)C(=O)N[C@H]2C(=O)N[C@H]3C(=O)N[C@H](C(=O)N[C@H](C(=O)O)c4cc(O)cc(O)c4-c4cc3ccc4O)[C@H](O)c3ccc(c(Cl)c3)Oc3cc2cc(c3O[C@@H]2O[C@H](CO)[C@@H](O)[C@H](O)[C@H]2O[C@H]2C[C@](C)(N)[C@H](O)[C@H](C)O2)Oc2ccc(cc2Cl)[C@H]1O [Vancomycin]
membrane destabilization (diffusion of propidium iodide dye into the cell) [4]: no membrane compromise
propidium iodide entry into cells (staining) (bacterial membrane): PI was unable to gain entry into cells

SMILES: CCCCCCCCCC(=O)N[C@@H](Cc1c[nH]c2ccccc12)C(=O)N[C@H](CC(N)=O)C(=O)N[C@@H](CC(=O)O)C(=O)N[C@@H]1C(=O)NCC(=O)N[C@@H](CCCN)C(=O)N[C@@H](CC(=O)O)C(=O)N[C@H](C)C(=O)N[C@@H](CC(=O)O)C(=O)NCC(=O)N[C@H](CO)C(=O)N[C@@H]([C@H](C)CC(=O)O)C(=O)N[C@@H](CC(=O)c2ccccc2N)C(=O)O[C@@H]1C [daptomycin]
membrane destabilization (diffusion of propidium iodide dye into the cell) [4]: no membrane compromise
